Results as given in patent publication US5288723A, “A composition and a method of using veratridine and epinephrine as a local anesthetic” (priority 1991, dated 1994).
Entries after “also recorded” stand apart in the source; their conditions may differ.

Assays:
rabbit vagus nerve = assay: Extracellular recording of compound action potentials (APc), vagus nerve as a whole; parameters: species or system New Zealand white rabbit
Method: (§1) Adult male New Zealand white rabbits (3±0.5 kg) were pretreated intramuscularly with a mixture of ketamine (200 mg), xylazine (20 mg) and atropine (0.4 mg) for sedation. Ten minutes after this treatment, the animals were anesthetized with diethyl ether. After cessation of respiration, a longitudinal skin incision was made, and the cervical portion of both vagus nerves was dissected. The vagus nerves were temporarily stored at room temperature (22° C.) in a beaker containing modified HEPES Liley (HL) solution stirred constantly by aeration with a mixture of 95% oxygen and 5% carbon dioxide.
(§2) The modified HL solution used for bathing the nerve and subsequent drug perfusion consisted of (in mM): NaCl, 118.0; KCl, 5.0; CaCl2 2H2 0, 2.0; MgCl2 6H2 0, 1.0; α-D(+)-glucose, 11.0; NaHC03, 25.0; and N-2-hydroxy-ethylpiperazine-N-2-ethanesulfonic acid (HEPES) buffer, 5.0 mM. The pH was adjusted to 7.4±0.05 by addition of 1 N NaOH. The perfusion solution was bubbled with a gas mixture of 95% oxygen and 5% carbon dioxide at a vigorous rate just before flowing onto the nerve. The pH was stabilized by the HEPES buffer and maintained at 7.4.
(§3) VTD free base (no. V-5754, lot 58F-7828, Sigma, St. Louis, Mo.) was stored in a desiccator below 0° C. and was used to prepare a 2 mM stock solution in dimethyl sulfoxide [DMSO], Fisher Scientific, lot 861316), which also was stored at below 0° C. VTD, a steroidal alkaloid (FIG. 2A) that is produced by certain lilies, has a solubility limited to approximately 10^-3 M in aqueous slat solutions [Kupchan and By, "The Veratrum Group," in Alkaloids, Vol. 10, Manske, R.H.F. (ed.), New York, Academic Press (1968), pp. 193-285]. The stock VTD solution was diluted to final concentrations of 0.2-10 μM by the addition of HL. The maximum equivalent content of DMSO is 0.5%, and in three control experiments we detected no change in electrophysiologic behavior with 1% DMSO.
The nerves were cleaned and desheathed by microdissection before mounting in an airtight chamber (FIG. 2B) [Gissen et al., Anesthesiology 53:467-474 (1980)]. Petroleum jelly (White Petrolatum, Denison Laboratories) seals separated a central, 11-mm length of the nerve from the lateral pools, used for stimulating and recording with electrodes made of platinum wire. The central section of the chamber (volume 0.25 ml) was perfused with HL solution at 0.5 ml.min.^-1. The lateral pools containing the moistened ends of the nerves adsorbed to the electrodes were filled with paraffin oil. […] Thus, measured APc s were conducted in nerve exposed to drug for half of the conduction pathway, and had been conducting through drug-free medium over a distance containing at least two or three nodes of Ranvier (in the fastest-conducting fibers), before reaching the recording electrodes. […]

rat sciatic nerve = assay: Motor block of rat sciatic nerve in vivo (toe curling and/or foot dragging); parameters: species or system Male Sprague-Dawley rats
[1] = test system: C-fibers of rabbit vagus nerve; assay: Sucrose-gap recording in the veratrinized region, C-fibers; parameters: species or system New Zealand white rabbit
Method: as §1, §2, §3
Nerves were desheathed and mounted in an acrylic sucrose-gap chamber (FIG. 2C). We used a method after that described by Stampfli [Stampfli, R., Experientia 10:508-509 (1954); see also Rando et al., Mol. Pharmacol. 29:467-477 (1986)]. […] In contrast to the extracellular chamber described above, which measured APc in a drug-free segment after they had propagated through a VTD solution, the sucrose gap measured the behavior of the nerve membrane directly exposed to drug, the "veratrinized" nerve.
APc and the CRP were recorded with the same amplifier used for extracellular recording (see above), but passed both to the DC-coupled input of the storage oscilloscope (for APc) and to a strip-chart recorder (for CRP) (model 8376-20, Cole-Palmer). […]

COc1ccc(C(=O)OC2CCC3(C)C4CCC5C6(O)CC(O)C7(O)C(CN8CC(C)CCC8C7(C)O)C6(O)CC53OC24O)cc1OC (stereo not shown) [VTD, veratridine]
Fiber preference of impulse inhibition (rabbit vagus nerve; VTD alone, use-dependent): highly preferential for C-fibers
Time to recover from VTD-induced use-dependent effects (rabbit vagus nerve; after termination of rapid stimulation): tens of seconds
Effect of VTD added to a nerve during recovery from bupivacaine (rabbit vagus nerve; residual bupivacaine block): potentiated rather than antagonized the residual block
Effect on impulses conducted in response to a single stimulus (rabbit vagus nerve; single stimuli, 0.5 μM): only a small effect; also recorded: unaffected
Duration of motor block (summary) (rat sciatic nerve; VTD alone, 0.2-0.7 mM, approximately): 100 to 300 min
fraction block, MOTOR (rat sciatic nerve; [VTD] 0.2 mM, 0.1 ml): 8/10
onset, MOTOR (rat sciatic nerve; [VTD] 0.2 mM, 0.1 ml, mean ± SEM): 13 ± 2 min
fraction block, MOTOR (rat sciatic nerve; [VTD] 0.7 mM, 0.1 ml): 5/10
Duration of nerve block compared with bupivacaine and lidocaine (rat sciatic nerve; rat sciatic nerve): longer duration than both
C-fiber elevation after addition of VTD ([1]; 0.5 μm VTD, single stimulus): unaffected
Time for development of VTD-induced depolarization (VID) after stimulation ([1]; 0.5 μm VTD, within about 100 ms): ≤ 100 ms
Decay halftime of VTD-induced depolarization (VID) ([1]; after 1 hr in 2.0 μm VTD): 3 to 4 s
Primary C-fiber elevations during cumulative VID ([1]; repetitive stimulation): much smaller than were the elevations induced by single stimuli; also recorded: selectively reduced
